Laboratory results: patent US8278452B2, “Heterocyclic compounds and compositions as c-kit and PDGFR kinase inhibitors” (IRM LLC, priority 2008, dated 2012)

System: Mo7e cells which endogenously express c-kit
Test: Mo7e assay: inhibition of SCF dependent proliferation (MTT)
Type: cell-based
Details: Table 1; SCF stimulated Mo7e cells, 48 hours, MTT
In short: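 Mo7e cells stimulated with human recombinant SCF and exposed to two-fold serial compound dilutions from a top concentration of 10 μM. After 48 h at 37 °C, viability measured by MTT colorimetric assay; IC50 derived.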

| Structure (SMILES) | IC50 [nM] |
| --- | --- |
| Cc1cc2c(cn1)cc(-c1cc(Nc3noc([C@@]4(C)CCCO4)n3)ccc1C)c(=O)n2C [Compound A97, 1,7-dimethyl-3-[2-methyl-5-({5-[(2R)-2-methyloxolan-2-yl]-1,2,4-oxadiazol-3-yl}amino)phenyl]-1,2-dihydro-1,6-naphthyridin-2-one] | 160 |
| Cc1cc2c(cn1)cc(-c1cc(Nc3noc(C4Cc5ccccc5O4)n3)ccc1C)c(=O)n2C (stereo not drawn) [Compound A98, 3-(5-{[5-(2,3-dihydro-1-benzofuran-2-yl)-1,2,4-oxadiazol-3-yl]amino}-2-methylphenyl)-1,7-dimethyl-1,2-dihydro-1,6-naphthyridin-2-one] | 389 |
| Cc1cc2c(cn1)cc(-c1cc(Nc3noc([C@H]4CCCCO4)n3)ccc1C)c(=O)n2C [Compound A99, 1,7-dimethyl-3-[2-methyl-5-({5-[(2R)-oxan-2-yl]-1,2,4-oxadiazol-3-yl}amino)phenyl]-1,2-dihydro-1,6-naphthyridin-2-one] | 100 |
| Cc1cc2c(cn1)cc(-c1cc(Nc3noc([C@@H]4CCCCO4)n3)ccc1C)c(=O)n2C [Compound A100, 1,7-dimethyl-3-[2-methyl-5-({5-[(2S)-oxan-2-yl]-1,2,4-oxadiazol-3-yl}amino)phenyl]-1,2-dihydro-1,6-naphthyridin-2-one] | 70 |
| Cc1cc2c(cn1)cc(-c1cc(Nc3noc([C@H]4C[C@@](C)(O)C4)n3)ccc1C)c(=O)n2C [Compound A101, 3-(5-{[5-(3-hydroxy-3-methylcyclobutyl)-1,2,4-oxadiazol-3-yl]amino}-2-methylphenyl)-1,7-dimethyl-1,2-dihydro-1,6-naphthyridin-2-one] | 205 |
| Cc1ccc(-c2nc(Nc3ccc(C)c(-c4cc5cnc(C)cc5n(C)c4=O)c3)no2)nc1 [Compound A102, 1,7-dimethyl-3-(2-methyl-5-{[5-(5-methylpyridin-2-yl)-1,2,4-oxadiazol-3-yl]amino}phenyl)-1,2-dihydro-1,6-naphthyridin-2-one] | 113 |
| COc1ccc(-c2nc(Nc3ccc(C)c(-c4cc5cnc(C)cc5n(C)c4=O)c3)no2)nc1 [Compound A103, 3-(5-{[5-(5-methoxypyridin-2-yl)-1,2,4-oxadiazol-3-yl]amino}-2-methylphenyl)-1,7-dimethyl-1,2-dihydro-1,6-naphthyridin-2-one] | 82 |
| CCc1cc2c(cn1)cc(-c1cc(Nc3noc(C(C)C)n3)ccc1C)c(=O)n2C [Compound A104, 7-ethyl-3-(5-(5-isopropyl-1,2,4-oxadiazol-3-ylamino)-2-methylphenyl)-1-methyl-1,6-naphthyridin-2(1H)-one] | 88 |
| CCc1cc2c(cn1)cc(-c1cc(Nc3noc(-c4ccccn4)n3)ccc1C)c(=O)n2C [Compound A105, 7-ethyl-1-methyl-3-(2-methyl-5-(5-(pyridin-2-yl)-1,2,4-oxadiazol-3-ylamino)phenyl)-1,6-naphthyridin-2(1H)-one] | 285 |
| COc1ccc(-c2nnc(Nc3ccc(C)c(-c4cc5cnc(C)cc5n(C)c4=O)c3)o2)cc1 [Compound B2, 3-(5-{[5-(4-methoxyphenyl)-1,3,4-oxadiazol-2-yl]amino}-2-methylphenyl)-1,7-dimethyl-1,2-dihydro-1,6-naphthyridin-2-one] | 85 |
| Cc1cc2c(cn1)cc(-c1cc(Nc3nnc(-c4ccc(Cl)cc4)o3)ccc1C)c(=O)n2C [Compound B3, 3-(5-{[5-(4-chlorophenyl)-1,3,4-oxadiazol-2-yl]amino}-2-methylphenyl)-1,7-dimethyl-1,2-dihydro-1,6-naphthyridin-2-one] | 88 |
| Cc1cc2c(cn1)cc(-c1cc(Nc3nnc(-c4ccccc4)o3)ccc1C)c(=O)n2C [Compound B4, 1,7-dimethyl-3-(2-methyl-5-(5-phenyl-1,3,4-oxadiazol-2-ylamino)phenyl)-1,6-naphthyridin-2(1H)-one] | 105 |
| Cc1cc2c(cn1)cc(-c1cc(Nc3nnc(CC(C)C)o3)ccc1C)c(=O)n2C [Compound B5, 3-(5-(5-isobutyl-1,3,4-oxadiazol-2-ylamino)-2-methylphenyl)-1,7-dimethyl-1,6-naphthyridin-2(1H)-one] | 108 |
| Cc1cc2c(cn1)cc(-c1cc(Nc3nnc(-c4ccc(F)cc4)o3)ccc1C)c(=O)n2C [Compound B6, 3-(5-{[5-(4-fluorophenyl)-1,3,4-oxadiazol-2-yl]amino}-2-methylphenyl)-1,7-dimethyl-1,2-dihydro-1,6-naphthyridin-2-one] | 121 |
| Cc1cc2c(cn1)cc(-c1cc(Nc3nnc(C(C)C)o3)ccc1C)c(=O)n2C [Compound B7, 1,7-dimethyl-3-(2-methyl-5-{[5-(propan-2-yl)-1,3,4-oxadiazol-2-yl]amino}phenyl)-1,2-dihydro-1,6-naphthyridin-2-one] | 162 |
| Cc1cc2c(cn1)cc(-c1cc(Nc3nnc(C(C)(C)C)o3)ccc1C)c(=O)n2C [Compound B8, 3-{5-[(5-tert-butyl-1,3,4-oxadiazol-2-yl)amino]-2-methylphenyl}-1,7-dimethyl-1,2-dihydro-1,6-naphthyridin-2-one] | 211 |
| Cc1cc2c(cn1)cc(-c1cc(Nc3nnc(C4CC4)o3)ccc1C)c(=O)n2C [Compound B9, 3-{5-[(5-cyclopropyl-1,3,4-oxadiazol-2-yl)amino]-2-methylphenyl}-1,7-dimethyl-1,2-dihydro-1,6-naphthyridin-2-one] | 334 |
| Cc1cc2c(cn1)cc(-c1cc(Nc3nnc(C4CCCCC4)o3)ccc1C)c(=O)n2C [Compound B10, 3-{5-[(5-cyclohexyl-1,3,4-oxadiazol-2-yl)amino]-2-methylphenyl}-1,7-dimethyl-1,2-dihydro-1,6-naphthyridin-2-one] | 378 |
| Cc1cc2c(cn1)cc(-c1cc(Nc3nnc(C4CCCC4)[nH]3)ccc1C)c(=O)n2C [Compound C1, 3-(5-(5-cyclopentyl-4H-1,2,4-triazol-3-ylamino)-2-methylphenyl)-1,7-dimethyl-1,6-naphthyridin-2(1H)-one] | 120 |
| Cc1cc2c(cn1)cc(-c1cc(Nc3nnc(-c4ccc(Cl)cc4)[nH]3)ccc1C)c(=O)n2C [Compound C2, 3-(5-{[5-(4-chlorophenyl)-4H-1,2,4-triazol-3-yl]amino}-2-methylphenyl)-1,7-dimethyl-1,2-dihydro-1,6-naphthyridin-2-one] | 256 |

| Structure (SMILES) | IC50 [nM] |
| --- | --- |
| Cc1cc2c(cn1)cc(-c1cc(Nc3nnc(C4CCCCC4)[nH]3)ccc1C)c(=O)n2C [Compound C3, 3-{5-[(5-cyclohexyl-4H-1,2,4-triazol-3-yl)amino]-2-methylphenyl}-1,7-dimethyl-1,2-dihydro-1,6-naphthyridin-2-one] | 279 |
| Cc1ccc(-c2nnc(Nc3ccc(C)c(-c4cc5cnc(C)cc5n(C)c4=O)c3)[nH]2)cc1 [Compound C4, 1,7-dimethyl-3-(2-methyl-5-{[5-(4-methylphenyl)-4H-1,2,4-triazol-3-yl]amino}phenyl)-1,2-dihydro-1,6-naphthyridin-2-one] | 288 |
| Cc1cc2c(cn1)cc(-c1cc(Nc3nnc(CC(C)(C)C)[nH]3)ccc1C)c(=O)n2C [Compound C5, 3-(5-{[5-(2,2-dimethylpropyl)-4H-1,2,4-triazol-3-yl]amino}-2-methylphenyl)-1,7-dimethyl-1,2-dihydro-1,6-naphthyridin-2-one] | 320 |
| Cc1cc2c(cn1)cc(-c1cc(Nc3nnc(-c4cccc(Cl)c4)[nH]3)ccc1C)c(=O)n2C [Compound C7, 3-(5-{[5-(3-chlorophenyl)-4H-1,2,4-triazol-3-yl]amino}-2-methylphenyl)-1,7-dimethyl-1,2-dihydro-1,6-naphthyridin-2-one] | 378 |
| Cc1cc2c(cn1)cc(-c1cc(Nc3nnc(C4CCC4)[nH]3)ccc1C)c(=O)n2C [Compound C8, 3-{5-[(5-cyclobutyl-4H-1,2,4-triazol-3-yl)amino]-2-methylphenyl}-1,7-dimethyl-1,2-dihydro-1,6-naphthyridin-2-one] | 435 |
| Cc1cc2c(cn1)cc(-c1cc(Nc3cc(-c4ccccc4)on3)ccc1C)c(=O)n2C [Compound D1, 1,7-dimethyl-3-(2-methyl-5-(5-phenylisoxazol-3-ylamino)phenyl)-1,6-naphthyridin-2(1H)-one] | 68 |
| Cc1cc2c(cn1)cc(-c1cc(Nc3cc(-c4ccc(OC(F)(F)F)cc4)on3)ccc1C)c(=O)n2C [Compound D2] | 428 |
| Cc1cc2c(cn1)cc(-c1cc(Nc3cc(-c4ccccn4)on3)ccc1C)c(=O)n2C [Compound D3] | 158 |
| Cc1cc2c(cn1)cc(-c1cc(Nc3cc(C4CC4)on3)ccc1C)c(=O)n2C [Compound D4, 3-(5-(5-cyclopropylisoxazol-3-ylamino)-2-methylphenyl)-1,7-dimethyl-1,6-naphthyridin-2(1H)-one] | 56 |
| Cc1cc2c(cn1)cc(-c1cc(Nc3cc(C4CCCO4)on3)ccc1C)c(=O)n2C (stereo not drawn) [Compound D5] | 197 |
| Cc1cc2c(cn1)cc(-c1cc(Nc3cc(-c4ccc(Br)cn4)on3)ccc1C)c(=O)n2C [Compound D6] | 229 |
| Cc1cc2c(cn1)cc(-c1cc(Nc3cc(-c4ccc(Cl)cc4Cl)on3)ccc1C)c(=O)n2C [Compound D7] | 401 |
| Cc1cc2c(cn1)cc(-c1cc(Nc3cc(-c4ccc(F)cc4Cl)on3)ccc1C)c(=O)n2C [Compound D8] | 361 |
| Cc1cc2c(cn1)cc(-c1cc(Nc3noc(-c4ccccc4)c3C)ccc1C)c(=O)n2C [Compound D10] | 339 |
| Cc1cc2c(cn1)cc(-c1cc(Nc3cc(-c4ccc(F)cc4)on3)ccc1C)c(=O)n2C [Compound D11] | 82 |
| Cc1cc2c(cn1)cc(-c1cc(Nc3cc(-c4ccc(Cl)nc4)on3)ccc1C)c(=O)n2C [Compound D12] | 198 |
| CC(=NO)c1cc(Nc2ccc(C)c(-c3cc4cnc(C)cc4n(C)c3=O)c2)no1 [Compound D13] | 476 |
| Cc1cc2c(cn1)cc(-c1cc(Nc3cc(C(C)C)on3)ccc1C)c(=O)n2C [Compound D14] | 144 |
| Cc1cc2c(cn1)cc(-c1cc(Nc3nc(-c4ccccc4)no3)ccc1C)c(=O)n2C [Compound E1, 1,7-dimethyl-3-{2-methyl-5-[(3-phenyl-1,2,4-oxadiazol-5-yl)amino]phenyl}-1,2-dihydro-1,6-naphthyridin-2-one] | 423 |
